Measured values as given in US10889589B2, “Bicyclic urea, thiourea, guanidine and cyanoguanidine compounds useful for the treatment of pain” (Array BioPharma Inc., priority 2012, dated 2021).

Molecular target: recombinant human TrkA (Homo sapiens (Human), UniProt P04629)
Experiment: TrkA Kinase Binding Assay (LanthaScreen Eu)
Conditions: averaged IC50; read-out: TrkA Enzyme IC50
Method: TrkA binding activity was determined in a TrkA LanthaScreen™ Eu Kinase Binding Assay. 5 nM His-tagged recombinant human TrkA (6HIS tagged cytoplasmic domain from Invitrogen, Catalog No. PV3144) was incubated with 4 nM Alexa-Fluor® Tracer 236 (Invitrogen Cat. No. PV5592), 2 nM biotinylated anti-His (Invitrogen Cat. No. PV6090), and 2 nM europium-labeled Streptavidin (Invitrogen Cat. No. PV5899), in buffer (25 mM MOPS, pH 7.5, 5 mM MgCl2, 0.005% Triton X-100). Three fold serial dilutions of compounds of the invention in DMSO were added to a final percentage of 2% DMSO. After 60-minute incubation at 22° C., the reaction was measured using the EnVision mutlimode plate reader (PerkinElmer) via TR-FRET dual wavelength detection at […]. The percent of control was calculated using a ratiometric emission factor. The IC50 values were determined by fitting a four parameter model to the percent of control data.
Table A provides averaged IC50 values for compounds of the invention when tested in the assay of Example A, where A represents an averaged IC50 value <100 nM; B represents an averaged IC50 value from 100 to 1,000 nM, and C represents an averaged IC50 value between >1,000 nM and 3,000 nM.

Chain of recombinant human TrkA (P04629 440-796): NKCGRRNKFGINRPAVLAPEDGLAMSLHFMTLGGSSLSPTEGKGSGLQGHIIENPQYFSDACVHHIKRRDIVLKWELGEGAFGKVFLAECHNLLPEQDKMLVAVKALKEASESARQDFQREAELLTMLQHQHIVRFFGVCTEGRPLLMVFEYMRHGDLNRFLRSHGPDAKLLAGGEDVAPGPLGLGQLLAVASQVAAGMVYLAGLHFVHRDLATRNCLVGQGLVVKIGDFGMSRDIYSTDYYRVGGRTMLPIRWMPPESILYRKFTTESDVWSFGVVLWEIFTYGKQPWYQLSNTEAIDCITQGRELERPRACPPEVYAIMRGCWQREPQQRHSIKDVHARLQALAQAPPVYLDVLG

Cc1c(-c2cnn(C)c2)nn(-c2ccccc2)c1NC(=O)N[C@@H]1c2cc(F)c(F)cc2C2(CC2)[C@H]1O (relative stereo) [Example 58, 1-(trans-5′,6′-difluoro-2′-hydroxy-2′,3′-dihydrospiro[cyclopropane-1,1′-inden]-3′-yl)-3-(1′,4-dimethyl-1-phenyl-1H, 1′H-[3,4′-bipyrazol]-5-yl)urea]
IC50: < 100 nM

COc1ncc(-c2nn(-c3ccccc3)c(NC(=O)N[C@@H]3c4ccccc4C4(CC4)[C@H]3O)c2C)cn1 (relative stereo) [Example 57, 1-(trans-2′-hydroxy-2′,3′-dihydrospiro[cyclopropane-1,1′-inden]-3′-yl)-3-(3-(2-methoxypyrimidin-5-yl)-4-methyl-1-phenyl-1H-pyrazol-5-yl)urea]
IC50: < 100 nM

Cc1c(OCC2CCN(C)CC2)nn(-c2ccccc2)c1NC(=O)N[C@@H]1c2ccccc2CC[C@H]1O (relative stereo) [Example 123, 1-(trans-2-hydroxy-1,2,3,4-tetrahydro-naphthalen-1-yl)-3-(4-methyl-3-((1-methylpiperidin-4-yl)methoxy)-1-phenyl-1H-pyrazol-5-yl)urea]
IC50: < 100 nM

Cc1c(-c2cnn(C)c2)nn(-c2ccccc2)c1NC(=O)N[C@@H]1c2cc(F)ccc2C2(CC2)[C@H]1O (relative stereo) [Example 63, 1-(1′,4-dimethyl-1-phenyl-1H1′H-[3,4′-bipyrazol]-5-yl)-3-(trans-5′-fluoro-2′-hydroxy-2′,3′-dihydrospiro[cyclopropane-1,1′-inden]-3′-yl)urea]
IC50: < 100 nM

Cc1c(-c2cnn(C)c2)nn(-c2ccccc2)c1NC(=O)N[C@@H]1c2ccc(F)cc2C2(CC2)[C@H]1O (relative stereo) [Example 64, 1-(1′,4-dimethyl-1-phenyl-1H,1′H-[3,4′-bipyrazol]-5-yl)-3-(trans-6′-fluoro-2′-hydroxy-2′,3′-dihydrospiro[cyclopropane-1,1′-inden]-3′-yl)urea]
IC50: < 100 nM

COc1nn(-c2ccccc2)c(NC(=O)N[C@@H]2c3cc(F)c(F)cc3C3(CC3)[C@H]2O)c1C (relative stereo) [Example 62, 1-(trans-5′,6′-difluoro-2′-hydroxy-2′,3′-dihydrospiro[cyclo-propane-1,1′-inden]-3′-yl)-3-(3-methoxy-4-methyl-1-phenyl-1H-pyrazol-5-yl)urea]
IC50: < 100 nM

Cc1nn(-c2ccccc2)c(NC(=O)N[C@@H]2c3cc(C(N)=O)ccc3C(C)(C)C[C@H]2O)c1C (relative stereo) [Example 98, trans-8-(3-(3,4-dimethyl-1-phenyl-1H-pyrazol-5-yl)ureido)-7-hydroxy-5,5-dimethyl-5,6,7,8-tetrahydronaphthalene-2-carboxamide]
IC50: 1000 to 3000 nM

COC(=O)c1ccc2c(c1)[C@@H](NC(=O)Nc1c(C)c(C)nn1-c1ccccc1)[C@H](O)CC2(C)C (relative stereo) [Example 99, trans-methyl 8-(3-(3,4-dimethyl-1-phenyl-1H-pyrazol-5-yl)ureido)-7-hydroxy-5,5-dimethyl-5,6,7,8-tetrahydronaphthalene-2-carboxylate]
IC50: < 100 nM

Cc1c(NC(=O)N[C@@H]2c3ccccc3C(C)(C)C[C@H]2O)n(-c2ccccc2)[nH]c1=O (relative stereo) [Example 95, 1-(trans-2-hydroxy-4,4-dimethyl-1,2,3,4-tetrahydronaphthalen-1-yl)-3-(4-methyl-5-oxo-2-phenyl-2,5-dihydro-1H-pyrazol-3-yl)urea]
IC50: < 100 nM

Cc1ncc(-c2nn(-c3ccccc3)c(NC(=O)N[C@@H]3c4ccccc4C4(CC4)[C@H]3O)c2C)cn1 (relative stereo) [Example 56, 1-(trans-2′-hydroxy-2′,3′-dihydrospiro[cyclopropane-1,1′-inden]-3′-yl)-3-(4-methyl-3-(2-methylpyrimidin-5-yl)-1-phenyl-1H-pyrazol-5-yl)urea]
IC50: < 100 nM
